Patent US20200172473A1, “DUAL MODULATORS OF FARNESOID X RECEPTOR AND SOLUBLE EPOXIDE HYDROLASE” (JOHANN WOLFGANG GOETHE-UNIVERSITÄT FRANKFURT AM MAIN, priority 2017, published 2020)

Target: T1, sEH (Mus musculus, UniProt P34914)
T1 construct: pilot in vivo study of the compound in male wild-type C57BL6/J mice; from tissue; host or cells: male wild-type C57BL/6J mice, in vivo; read-out in plasma
T1 sequence (P34914 1-554): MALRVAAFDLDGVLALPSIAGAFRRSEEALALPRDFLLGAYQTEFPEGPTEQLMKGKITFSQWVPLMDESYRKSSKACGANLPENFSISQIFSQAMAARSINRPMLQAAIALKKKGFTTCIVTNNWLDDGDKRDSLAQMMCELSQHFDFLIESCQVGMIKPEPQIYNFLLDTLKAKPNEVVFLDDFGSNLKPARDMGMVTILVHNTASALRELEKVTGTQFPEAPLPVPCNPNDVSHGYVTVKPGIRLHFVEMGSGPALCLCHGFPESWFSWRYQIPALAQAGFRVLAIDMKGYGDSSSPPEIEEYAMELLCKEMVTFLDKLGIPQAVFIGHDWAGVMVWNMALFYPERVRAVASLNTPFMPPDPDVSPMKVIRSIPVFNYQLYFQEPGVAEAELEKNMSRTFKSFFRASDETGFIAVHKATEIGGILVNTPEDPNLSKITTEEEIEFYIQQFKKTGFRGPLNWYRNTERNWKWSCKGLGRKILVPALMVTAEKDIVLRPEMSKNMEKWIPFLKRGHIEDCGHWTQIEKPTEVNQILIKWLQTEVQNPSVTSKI
Experiment: EET/DHET ratio in mouse plasma
Assay type: in vivo
Conditions: mice, 10 mg/kg p.o., 8 h post dose
Procedure: To record a pharmacokinetic profile and to evaluate pharmacodynamic data concerning FXR activation and sEH inhibition in vivo, six mice received a single dose of 57 (p.o., 10 mg/kg body weight). Three additional animals served as vehicle control.
To evaluate pharmacodynamic effects of 57, mouse plasma was analyzed for EET/DHET ratio, and FXR target gene expression was determined in mouse livers 8 hours post application (FIG. 5B). […] Expression of the PPARγ target gene fatty acid transport protein (FATP) was not affected by 57 in vivo.
Blood and liver sampling: At six time points (15 min, 30 min, 60 min, 120 min, 240 min and 480 min after application of 57), blood (20 μl) of the six restrained and conscious mice was obtained from the lateral tail vein. For the last time-point (480 min), mice were anesthetized under isoflurane and blood (˜500 μl) was obtained by retro-orbital puncture. A part of the blood was centrifuged (6000 rpm, 10 min, +4° C.) to obtain plasma for quantification of EET/DHET ratio and stored at −80° C. until further evaluation. […]
EET/DHET ratio analysis from mouse plasma samples (Determination of Epoxyeicosatrienoicacids (EETs) and their metabolites Dihydroxyepoxyeicosatrienoicacids (DHETs) by LCMS/MS): 8.9-EET, 11.12-EET and their dehydro-metabolites content of the extracted samples were analyzed employing liquid chromatography tandem mass spectroscopy (LC-MS/MS). […]

CC(C)(C)c1ccc(C(=O)NCc2ccc(NS(C)(=O)=O)cc2Cl)cc1 [compound 57, 4-(tert-Butyl)-N-(2-chloro-4-(methylsulfonamido)benzyl)benzamide]
11,12-EET/11,12-DHET ratio in plasma (vehicle 0.15±0.01): 0.25±0.03
8,9-EET/8,9-DHET ratio in plasma (vehicle 0.40±0.03): 0.63±0.03
